The source of these data is US9340590B2 (priority 2011, dated 2016).

Experiment in all cases: cell-based
One assay deals with hNav1.5 (Homo sapiens, UniProt Q14524). The note with it: IonWorks Quattro, read-out: IWQ Use Nav1.5. Background: The patch-clamp technique gives a direct electrical read-out from membranes.
For the next assay, the target named is hNav1.3 (Homo sapiens, UniProt Q9NY46). The note with it: IonWorks Quattro, read-out: IWQ Use Nav1.3.
A further assay deals with hNav1.7 (Homo sapiens, UniProt Q15858). Type of assay: cell-based. The note with it: IonWorks Quattro.
Where [1] appears, read: use-dependent block, hNav1.7, read-out: IWQ Use Nav1.7.
[2] abbreviates: use-dependent, […], read-out: IWQ Use Nav1.7 (μm).

Read-outs that look alike come from different tables or passages of the source. Positions of bridges follow the written chain, without caps; N, C: chain ends. Non-standard residues stand in square brackets, D forms with d. Residues, ends and D or L forms follow the SMILES beside them. 1Nal = N[C@@H](Cc1cccc2ccccc12)C(=O)O; 2Nal = N[C@@H](Cc1ccc2ccccc2c1)C(=O)O; Abu = CC[C@H](N)C(=O)O

Chain of hNav1.7 (Q15858 whole entry, looked up): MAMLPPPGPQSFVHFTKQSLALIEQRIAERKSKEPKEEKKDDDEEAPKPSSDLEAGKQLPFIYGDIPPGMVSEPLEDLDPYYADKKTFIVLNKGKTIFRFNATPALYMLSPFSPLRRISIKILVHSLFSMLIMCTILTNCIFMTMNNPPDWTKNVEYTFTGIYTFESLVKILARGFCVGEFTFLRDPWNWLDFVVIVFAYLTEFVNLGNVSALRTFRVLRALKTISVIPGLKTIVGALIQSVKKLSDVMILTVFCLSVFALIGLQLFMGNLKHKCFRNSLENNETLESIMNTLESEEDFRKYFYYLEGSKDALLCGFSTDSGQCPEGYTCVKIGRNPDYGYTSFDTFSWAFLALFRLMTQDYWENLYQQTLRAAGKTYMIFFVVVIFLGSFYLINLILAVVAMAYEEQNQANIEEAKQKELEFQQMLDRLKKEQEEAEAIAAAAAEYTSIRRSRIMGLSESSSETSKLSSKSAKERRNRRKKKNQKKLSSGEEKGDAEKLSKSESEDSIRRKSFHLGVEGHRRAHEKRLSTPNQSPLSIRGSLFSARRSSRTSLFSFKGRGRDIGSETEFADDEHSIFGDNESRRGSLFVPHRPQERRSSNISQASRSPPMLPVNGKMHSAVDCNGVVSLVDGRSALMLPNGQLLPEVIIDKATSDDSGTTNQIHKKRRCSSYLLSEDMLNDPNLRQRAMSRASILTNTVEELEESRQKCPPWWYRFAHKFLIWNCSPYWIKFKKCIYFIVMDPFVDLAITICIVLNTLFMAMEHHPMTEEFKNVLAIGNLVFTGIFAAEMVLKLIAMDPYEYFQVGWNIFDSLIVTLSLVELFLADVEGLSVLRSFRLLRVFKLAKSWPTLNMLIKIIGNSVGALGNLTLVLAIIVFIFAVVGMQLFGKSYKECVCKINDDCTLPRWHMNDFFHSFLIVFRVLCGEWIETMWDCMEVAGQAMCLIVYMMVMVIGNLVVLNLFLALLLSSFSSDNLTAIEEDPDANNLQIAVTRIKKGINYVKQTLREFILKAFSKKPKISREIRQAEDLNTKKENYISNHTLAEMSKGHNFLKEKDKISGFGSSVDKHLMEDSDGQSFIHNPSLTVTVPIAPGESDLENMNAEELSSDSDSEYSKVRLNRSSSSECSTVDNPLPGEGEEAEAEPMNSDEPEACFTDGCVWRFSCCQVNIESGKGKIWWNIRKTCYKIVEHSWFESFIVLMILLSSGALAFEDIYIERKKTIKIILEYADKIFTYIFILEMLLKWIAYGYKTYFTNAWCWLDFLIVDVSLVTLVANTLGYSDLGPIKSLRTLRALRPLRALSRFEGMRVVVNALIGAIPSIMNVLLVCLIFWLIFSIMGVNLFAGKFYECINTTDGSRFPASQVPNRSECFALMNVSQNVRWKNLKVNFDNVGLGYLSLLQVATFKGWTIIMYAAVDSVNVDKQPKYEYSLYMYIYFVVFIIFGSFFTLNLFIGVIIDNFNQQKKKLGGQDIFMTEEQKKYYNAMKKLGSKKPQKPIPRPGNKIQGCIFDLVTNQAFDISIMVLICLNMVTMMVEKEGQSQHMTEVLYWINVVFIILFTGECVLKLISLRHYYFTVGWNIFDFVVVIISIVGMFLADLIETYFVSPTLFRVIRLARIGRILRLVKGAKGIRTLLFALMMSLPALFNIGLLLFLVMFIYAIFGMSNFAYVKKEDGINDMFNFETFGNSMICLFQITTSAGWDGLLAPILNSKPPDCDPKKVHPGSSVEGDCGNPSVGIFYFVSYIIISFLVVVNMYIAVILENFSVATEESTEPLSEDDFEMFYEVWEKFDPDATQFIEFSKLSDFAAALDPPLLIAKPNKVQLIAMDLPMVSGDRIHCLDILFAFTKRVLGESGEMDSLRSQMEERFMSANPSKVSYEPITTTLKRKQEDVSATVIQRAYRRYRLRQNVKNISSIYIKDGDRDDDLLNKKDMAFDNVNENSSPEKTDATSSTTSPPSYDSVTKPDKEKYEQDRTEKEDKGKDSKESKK
Chain of hNav1.5 (Q14524 whole entry, looked up): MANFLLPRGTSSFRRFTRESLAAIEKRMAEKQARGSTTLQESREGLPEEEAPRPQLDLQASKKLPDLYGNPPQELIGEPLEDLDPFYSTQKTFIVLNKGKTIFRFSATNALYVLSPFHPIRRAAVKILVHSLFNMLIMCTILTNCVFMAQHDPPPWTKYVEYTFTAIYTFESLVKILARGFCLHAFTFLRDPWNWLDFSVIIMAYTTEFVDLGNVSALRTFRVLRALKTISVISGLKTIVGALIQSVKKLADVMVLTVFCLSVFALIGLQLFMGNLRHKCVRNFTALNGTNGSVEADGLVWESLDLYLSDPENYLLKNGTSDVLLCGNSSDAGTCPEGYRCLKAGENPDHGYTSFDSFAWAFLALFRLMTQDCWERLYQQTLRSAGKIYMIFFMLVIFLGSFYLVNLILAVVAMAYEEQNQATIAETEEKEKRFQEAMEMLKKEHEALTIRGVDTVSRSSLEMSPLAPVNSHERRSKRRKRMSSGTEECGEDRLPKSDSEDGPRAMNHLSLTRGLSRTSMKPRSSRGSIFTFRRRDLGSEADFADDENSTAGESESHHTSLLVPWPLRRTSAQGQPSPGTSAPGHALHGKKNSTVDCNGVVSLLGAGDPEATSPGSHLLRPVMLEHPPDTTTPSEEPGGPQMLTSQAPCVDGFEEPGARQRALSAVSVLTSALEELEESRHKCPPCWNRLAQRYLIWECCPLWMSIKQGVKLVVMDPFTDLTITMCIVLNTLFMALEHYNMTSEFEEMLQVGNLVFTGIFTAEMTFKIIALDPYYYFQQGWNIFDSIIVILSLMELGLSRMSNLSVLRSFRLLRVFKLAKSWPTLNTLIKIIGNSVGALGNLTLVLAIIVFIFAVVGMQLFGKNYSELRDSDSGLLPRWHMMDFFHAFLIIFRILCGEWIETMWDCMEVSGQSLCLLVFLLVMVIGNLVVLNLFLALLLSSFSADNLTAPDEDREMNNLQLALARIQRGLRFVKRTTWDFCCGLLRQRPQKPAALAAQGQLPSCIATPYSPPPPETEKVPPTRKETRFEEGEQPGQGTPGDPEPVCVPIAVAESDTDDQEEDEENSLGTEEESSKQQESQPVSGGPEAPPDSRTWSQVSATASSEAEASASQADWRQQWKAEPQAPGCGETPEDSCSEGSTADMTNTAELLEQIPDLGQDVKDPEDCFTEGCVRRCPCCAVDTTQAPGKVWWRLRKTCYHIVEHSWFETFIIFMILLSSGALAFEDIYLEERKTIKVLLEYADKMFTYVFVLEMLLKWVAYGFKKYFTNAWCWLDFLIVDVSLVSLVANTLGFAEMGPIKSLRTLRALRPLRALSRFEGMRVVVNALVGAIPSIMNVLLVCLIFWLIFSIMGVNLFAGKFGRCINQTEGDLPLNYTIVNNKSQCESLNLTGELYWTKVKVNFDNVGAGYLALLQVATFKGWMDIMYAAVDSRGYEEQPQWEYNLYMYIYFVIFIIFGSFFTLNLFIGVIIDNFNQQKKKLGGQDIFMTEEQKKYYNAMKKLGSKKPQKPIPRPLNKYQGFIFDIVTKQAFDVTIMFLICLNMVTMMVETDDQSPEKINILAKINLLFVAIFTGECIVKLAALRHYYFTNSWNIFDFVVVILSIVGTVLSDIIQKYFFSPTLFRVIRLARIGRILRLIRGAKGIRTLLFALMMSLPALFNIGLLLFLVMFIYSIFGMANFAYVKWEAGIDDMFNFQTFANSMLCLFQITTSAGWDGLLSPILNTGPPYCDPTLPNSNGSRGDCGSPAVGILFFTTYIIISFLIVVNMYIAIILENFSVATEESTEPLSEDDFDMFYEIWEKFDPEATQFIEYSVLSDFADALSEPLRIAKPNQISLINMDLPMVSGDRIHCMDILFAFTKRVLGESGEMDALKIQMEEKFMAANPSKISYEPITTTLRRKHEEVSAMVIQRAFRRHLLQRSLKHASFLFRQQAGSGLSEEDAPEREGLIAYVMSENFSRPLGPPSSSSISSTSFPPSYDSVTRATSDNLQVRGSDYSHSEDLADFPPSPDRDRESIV

For the compound `CC[C@H](C)[C@@H]1NC(=O)[C@@H]2CSSC[C@@H]3NC(=O)[C@H](C(C)C)NC(=O)[C@H](CC(C)C)NC(=O)[C@H](CC(N)=O)NC(=O)[C@@H]4CCCN4C(=O)[C@H](CCCNC(=N)N)NC(=O)[C@H](CSSC[C@H](NC(=O)[C@@H](N)CC(=O)O)C(=O)N[C@@H](CC(C)C)C(=O)NCC(=O)N[C@@H](Cc4ccccc4)C(=O)N[C@@H](CCSC)C(=O)N[C@@H](CCCNC(=N)N)C(=O)N[C@@H](CCCCN)C(=O)N2)NC(=O)[C@H](CSSC[C@@H](C(=O)N[C@@H](CCCCN)C(=O)N[C@@H](CCCCN)C(=O)N[C@H](C(=O)N[C@@H](Cc2ccccc2)C(=O)N[C@@H](Cc2c[nH]c4ccccc24)C(N)=O)C(C)C)NC(=O)[C@H](Cc2c[nH]c4ccccc24)NC(=O)[C@H](CCCCN)NC(=O)[C@H](Cc2c[nH]cn2)NC(=O)[C@H]([C@@H](C)O)NC(=O)[C@H](CCCNC(=N)N)NC(=O)[C@H](CO)NC3=O)NC(=O)[C@H](CCCCN)NC(=O)[C@H](CC(=O)O)NC(=O)[C@H](CC(N)=O)NC(=O)[C@H](CC(=O)O)NC(=O)[C@@H]2CCCN2C1=O` [compound 127] (H-DCLGFMRKCIPDNDKCCRPNLVCSRTHKWCKKVFW-NH2; disulfide 2-17, 9-23, 16-30), the IC50 was 18900 nM at hNav1.5 (use-dependent block, hNav1.5); 700 nM at hNav1.3 (use-dependent block, hNav1.3); 730 nM at hNav1.7 (setting [1]).
Turning to `CC[C@H](C)[C@@H]1NC(=O)[C@@H]2CSSC[C@@H]3NC(=O)[C@H](C(C)C)NC(=O)[C@H](CC(C)C)NC(=O)[C@H](CC(N)=O)NC(=O)[C@@H]4CCCN4C(=O)[C@H](CCCNC(=N)N)NC(=O)[C@H](CSSC[C@H](NC(=O)[C@@H](N)CC(=O)O)C(=O)N[C@@H](CC(C)C)C(=O)NCC(=O)N[C@@H](Cc4ccccc4)C(=O)N[C@@H](CCSC)C(=O)N[C@@H](CCCNC(=N)N)C(=O)N[C@@H](CCCCN)C(=O)N2)NC(=O)[C@H](CSSC[C@@H](C(=O)N[C@@H](CCCCN)C(=O)N[C@@H](Cc2ccc(O)cc2)C(=O)N[C@H](C(=O)N[C@@H](Cc2ccc4ccccc4c2)C(N)=O)C(C)C)NC(=O)[C@H](Cc2c[nH]c4ccccc24)NC(=O)[C@H](CCCCN)NC(=O)[C@H](Cc2c[nH]cn2)NC(=O)[C@H]([C@@H](C)O)NC(=O)[C@H](CCCNC(=N)N)NC(=O)[C@H](CO)NC3=O)NC(=O)[C@H](CCCCN)NC(=O)[C@H](CC(=O)O)NC(=O)[C@H](CC(N)=O)NC(=O)[C@H](CC(=O)O)NC(=O)[C@@H]2CCCN2C1=O` [compound 130] (H-DCLGFMRKCIPDNDKCCRPNLVCSRTHKWCKYV[2Nal]-NH2; disulfide 2-17, 9-23, 16-30), the IC50 at hNav1.5 (use-dependent, […]) worked out at 3590 nM; on hNav1.3 (use-dependent, […]), 20 nM; at hNav1.7 (use-dependent, […], read-out: IWQ Use Nav1.7) it was 40 nM.
Regarding `CC[C@H](C)[C@@H]1NC(=O)[C@@H]2CSSC[C@@H]3NC(=O)[C@H](C(C)C)NC(=O)[C@H](CC(C)C)NC(=O)[C@H](CC(N)=O)NC(=O)[C@@H]4CCCN4C(=O)[C@H](CCCNC(=N)N)NC(=O)[C@H](CSSC[C@H](NC(=O)[C@@H](N)CC(=O)O)C(=O)N[C@@H](CC(C)C)C(=O)NCC(=O)N[C@@H](Cc4ccccc4)C(=O)N[C@@H](CCSC)C(=O)N[C@@H](CCCNC(=N)N)C(=O)N[C@@H](CCCCN)C(=O)N2)NC(=O)[C@H](CSSC[C@@H](C(=O)N[C@@H](CCCCN)C(=O)N[C@@H](Cc2ccc(O)cc2)C(=O)N[C@H](C(=O)N[C@@H](Cc2ccccc2)C(=O)N[C@@H](Cc2ccc4ccccc4c2)C(N)=O)C(C)C)NC(=O)[C@H](Cc2c[nH]c4ccccc24)NC(=O)[C@H](CCCCN)NC(=O)[C@H](Cc2c[nH]cn2)NC(=O)[C@H]([C@@H](C)O)NC(=O)[C@H](CCCNC(=N)N)NC(=O)[C@H](CO)NC3=O)NC(=O)[C@H](CCCCN)NC(=O)[C@H](CC(=O)O)NC(=O)[C@H](CC(N)=O)NC(=O)[C@H](CC(=O)O)NC(=O)[C@@H]2CCCN2C1=O` [compound 131], the IC50 on hNav1.5 (use-dependent, […]) was determined as 2550 nM; at hNav1.3 (use-dependent, […]) it was 20 nM; at hNav1.7 (setting [2]), 50 nM.
For the compound `CC[C@H](C)[C@@H]1NC(=O)[C@@H]2CSSC[C@@H]3NC(=O)[C@H](C(C)C)NC(=O)[C@H](CC(C)C)NC(=O)[C@H](CC(N)=O)NC(=O)[C@@H]4CCCN4C(=O)[C@H](CCCNC(=N)N)NC(=O)[C@H](CSSC[C@H](NC(=O)[C@@H](N)CC(=O)O)C(=O)N[C@@H](CC(C)C)C(=O)NCC(=O)N[C@@H](Cc4ccccc4)C(=O)N[C@@H](CCSC)C(=O)N[C@@H](CCCNC(=N)N)C(=O)N[C@@H](CCCCN)C(=O)N2)NC(=O)[C@H](CSSC[C@@H](C(=O)N[C@@H](CCCCN)C(=O)N[C@@H](Cc2ccc(O)cc2)C(=O)N[C@H](C(=O)N[C@@H](Cc2ccccc2)C(=O)N[C@@H](Cc2c[nH]c4ccccc24)C(=O)O)C(C)C)NC(=O)[C@H](Cc2c[nH]c4ccccc24)NC(=O)[C@H](CCCCN)NC(=O)[C@H](Cc2c[nH]cn2)NC(=O)[C@H]([C@@H](C)O)NC(=O)[C@H](CCCNC(=N)N)NC(=O)[C@H](CO)NC3=O)NC(=O)[C@H](CCCCN)NC(=O)[C@H](CC(=O)O)NC(=O)[C@H](CC(N)=O)NC(=O)[C@H](CC(=O)O)NC(=O)[C@@H]2CCCN2C1=O` [compound 133], the IC50 on hNav1.5 (use-dependent, […]) came out at 8280 nM; at hNav1.3 (use-dependent, […]) it was 110 nM; on hNav1.7 (setting [2]), 480 nM.
Consider `CC[C@@H]1NC(=O)[C@H](CCCCN)NC(=O)[C@H](CCCNC(=N)N)NC(=O)[C@H](CCSC)NC(=O)[C@H](Cc2ccccc2)NC(=O)CNC(=O)[C@H](CC(C)C)NC(=O)[C@@H](NC(=O)[C@@H](N)CC(=O)O)CSSC[C@@H]2NC(=O)[C@H](CSSC[C@@H](C(=O)N[C@@H](CCCCN)C(=O)N[C@@H](Cc3ccc(O)cc3)C(=O)N[C@H](C(=O)N[C@@H](Cc3ccccc3)C(N)=O)C(C)C)NC(=O)[C@H](Cc3c[nH]c4ccccc34)NC(=O)[C@H](CCCCN)NC(=O)[C@H](Cc3c[nH]cn3)NC(=O)[C@H]([C@@H](C)O)NC(=O)[C@H](CCCNC(=N)N)NC(=O)[C@H](CO)NC(=O)[C@H](CC)NC(=O)[C@H](C(C)C)NC(=O)[C@H](CC(C)C)NC(=O)[C@H](CC(N)=O)NC(=O)[C@@H]3CCCN3C(=O)[C@H](CCCNC(=N)N)NC2=O)NC(=O)[C@H](CCCCN)NC(=O)[C@H](CC(=O)O)NC(=O)[C@H](CC(N)=O)NC(=O)[C@H](CC(=O)O)NC(=O)[C@@H]2CCCN2C(=O)[C@H]([C@@H](C)CC)NC1=O` [compound 135] (H-DCLGFMRK[Abu]IPDNDKCCRPNLV[Abu]SRTHKWCKYVF-NH2; disulfide 2-17, 16-30), for which the IC50 on hNav1.5 (use-dependent block, hNav1.5) turned out to be 9210 nM; at hNav1.3 (use-dependent block, hNav1.3), 12300 nM; at hNav1.7 (setting [1]), 8140 nM.
Turning to `CC[C@H](C)[C@@H]1NC(=O)[C@@H]2CSSC[C@@H]3NC(=O)[C@H](C(C)C)NC(=O)[C@H](CC(C)C)NC(=O)[C@H](CC(N)=O)NC(=O)[C@@H]4CCCN4C(=O)[C@H](CCCNC(=N)N)NC(=O)[C@H](CSSC[C@H](NC(=O)[C@@H](N)CC(=O)O)C(=O)N[C@@H](CC(C)C)C(=O)NCC(=O)N[C@@H](Cc4ccc5ccccc5c4)C(=O)N[C@@H](CCSC)C(=O)N[C@@H](CCCNC(=N)N)C(=O)N[C@@H](CCCCN)C(=O)N2)NC(=O)[C@H](CSSC[C@@H](C(=O)N[C@@H](CCCCN)C(=O)N[C@@H](Cc2ccc(O)cc2)C(=O)N[C@H](C(=O)N[C@@H](Cc2ccc4ccccc4c2)C(N)=O)C(C)C)NC(=O)[C@H](Cc2c[nH]c4ccccc24)NC(=O)[C@H](CCCCN)NC(=O)[C@H](Cc2c[nH]cn2)NC(=O)[C@H]([C@@H](C)O)NC(=O)[C@H](CCCNC(=N)N)NC(=O)[C@H](CO)NC3=O)NC(=O)[C@H](CCCCN)NC(=O)[C@H](CC(=O)O)NC(=O)[C@H](CC(N)=O)NC(=O)[C@H](CC(=O)O)NC(=O)[C@@H]2CCCN2C1=O` [compound 136] (H-DCLG[2Nal]MRKCIPDNDKCCRPNLVCSRTHKWCKYV[2Nal]-NH2; disulfide 2-17, 9-23, 16-30), the IC50 at hNav1.5 (use-dependent block, hNav1.5) is 5140 nM; at hNav1.3 (use-dependent block, hNav1.3), 30 nM; on hNav1.7 (setting [1]), 140 nM.
On the same counts, the results for `CC[C@H](C)[C@@H]1NC(=O)[C@@H]2CSSC[C@@H]3NC(=O)[C@H](C(C)C)NC(=O)[C@H](CC(C)C)NC(=O)[C@H](CC(N)=O)NC(=O)[C@@H]4CCCN4C(=O)[C@H](CCCNC(=N)N)NC(=O)[C@H](CSSC[C@H](NC(=O)[C@@H](N)CC(=O)O)C(=O)N[C@@H](CC(C)C)C(=O)NCC(=O)N[C@@H](Cc4ccc5ccccc5c4)C(=O)N[C@@H](CCSC)C(=O)N[C@@H](CCCNC(=N)N)C(=O)N[C@@H](CCCCN)C(=O)N2)NC(=O)[C@H](CSSC[C@@H](C(=O)N[C@@H](CCCCN)C(=O)N[C@@H](Cc2ccc(O)cc2)C(=O)N[C@H](C(=O)N[C@@H](Cc2cccc4ccccc24)C(N)=O)C(C)C)NC(=O)[C@H](Cc2c[nH]c4ccccc24)NC(=O)[C@H](CCCCN)NC(=O)[C@H](Cc2c[nH]cn2)NC(=O)[C@H]([C@@H](C)O)NC(=O)[C@H](CCCNC(=N)N)NC(=O)[C@H](CO)NC3=O)NC(=O)[C@H](CCCCN)NC(=O)[C@H](CC(=O)O)NC(=O)[C@H](CC(N)=O)NC(=O)[C@H](CC(=O)O)NC(=O)[C@@H]2CCCN2C1=O` [compound 137] (H-DCLG[2Nal]MRKCIPDNDKCCRPNLVCSRTHKWCKYV[1Nal]-NH2; disulfide 2-17, 9-23, 16-30) are 3150 nM, 20 nM and 110 nM.
